Test results published in patent US10888511B2, “Methods and articles of manufacture for the treatment of skin” (Advanced Collagen Science LLC, priority 2013, dated 2021).

What was measured:
Human Skin [1] = test: Acetylation of human skin using alcohol penetration enhancer; assay type: in vivo; details: 50 mg/mL in ethanol, 1 minute, no dermabrasion, up to 5 treatments
Procedure: In this example, glutaric anhydride was applied to temporal defects adjacent to periorbital areas. Skin defects were pretreated by application of 0.1M disodium phosphate solution, pH 8.3 for 30 seconds using surgical gauze. Glutaric anhydride (50 mg/mL) was dissolved in ethanol and applied to the defects for 1 minute using surgical gauze. Treatment sites were then rinsed with 0.1M phosphate buffered saline, pH 7.2. Up to 5 treatments were made to specific skin sites

Human Skin [2] = test: Acetylation of human skin using glutaric anhydride in pH adjusted vegetable oil without dermabrasion; assay type: in vivo; details: 30 mg/mL dispersed in vegetable oil adjusted to pH 9.0, 1 minute, one treatment, no dermabrasion
Procedure: In this example, glutaric anhydride was applied to temporal defects adjacent to periorbital areas. Skin defects were pretreated by application of 0.1M disodium phosphate solution, pH 8.3 for 30 seconds using surgical gauze. Glutaric anhydride powder (30 mg/mL) was dispersed in vegetable oil adjusted to a pH of 9.0 using 10N NaOH and gently applied to the wet defects for 1 minute using surgical gauze. The treatment sites were then rinsed with 0.1M phosphate buffered saline, pH 7.2. Only one treatment was made to temporal skin sites.

Human Skin [3] = test: Acetylation of human skin using glutaric anhydride in pH adjusted vegetable oil following micro-needle roller treatment; assay type: in vivo; details: 40 mg/mL in vegetable oil adjusted to pH 9.1, forearm, 1 minute
Procedure: In this example, glutaric anhydride was applied to the forearm. A skin area approximately 4 mm×4 mm was punctured using a micro-needle roller, followed by pretreated with 0.1M disodium phosphate solution, pH 8.3 for 30 seconds using cotton swab. Glutaric anhydride powder (40 mg/mL) was dispersed in vegetable oil that was adjusted to a pH of 9.1 using granules of sodium hydroxide powder and gently applied to the pre-treated skin area for 1 minute using a cotton swab. The sites were rinsed using an alcohol swab.

Human Skin [4] = test: Acetylation of human skin using glutaric anhydride in alkaline EDTA solution following pretreatment with alkaline EDTA solution; assay type: in vivo; details: powder on gauze flushed with 0.035M disodium EDTA pH 9.0, upper cheek
From the text: In this example, glutaric anhydride was applied to the cheek. An area of the upper cheek, below the eye, was pretreated with pH adjusted 0.035M disodium EDTA (pH 9.0) applied using a gauze pad. Glutaric anhydride powder was finely ground using a mortar and pestle and rubbed into a second gauze pad. The gauze was placed on the treatment area and flushed with pH adjusted 0.035M disodium EDTA (pH 9.0) to deliver the glutaric anhydride to the treatment site as it dissolved in the EDTA solution. […] Two such applications were performed.

[5] = system: Human Skin (Hand and Temple); test: Acetylation of human skin (hand and temple) following dermabrasion, in ethanol or anhydrous alcohol; assay type: in vivo; details: 50 mg/mL in ethanol or anhydrous alcohol, 1 minute, after dermabrasion, up to 5 treatments
Procedure: In this example, glutaric anhydride was applied to temporal defects adjacent to periorbital areas. Skin defects were first subject to gentle dermabrasion followed by application of 0.1M disodium phosphate solution, pH 8.3 for 30 seconds using surgical gauze. Glutaric anhydride (50 mg/mL) was dissolved in ethanol or anhydrous alcohol and applied to the defects for 1 minute using surgical gauze. Treatment sites were then rinsed with 0.1M phosphate buffered saline, pH 7.2. Up to 5 treatments were made to specific skin sites.

Human Skin [6] = test: Acetylation of human skin using glutaric anhydride in vegetable oil without dermabrasion; assay type: in vivo; details: 30 mg/mL dispersed in vegetable oil, 1 minute, one treatment, no dermabrasion
Procedure: In this example, glutaric anhydride was applied to temporal defects adjacent to periorbital areas. Skin defects were pretreated by application of 0.1M disodium phosphate solution, pH 8.3 for 30 seconds using surgical gauze. Glutaric anhydride powder (30 mg/mL) was dispersed in vegetable oil and gently applied to the wet defects for 1 minute using surgical gauze. The treatment sites were then rinsed with 0.1M phosphate buffered saline, pH 7.2. Only one treatment was made to temporal skin sites.

Human Skin [7] = test: Acetylation of human skin without dermabrasion, micro-needle roll or penetration enhancers; assay type: in vivo; details: 20 mg/mL in 0.3M disodium phosphate pH 8.9, 30 seconds to 1 minute, no dermabrasion
Procedure: In this example, the pre-treatment buffer, 0.1M disodium phosphate solution, pH 8.3, was applied for 30 seconds using surgical gauze. Glutaric anhydride (20 mg/mL) was mixed in 0.3M disodium phosphate solution at pH 8.9 and immediately (less than 5 seconds after dissolution) applied to the defects for 30 seconds to 1 minute using surgical gauze. Treatment sites were then rinsed with 0.1M phosphate buffered saline, pH 7.2. No effect on skin thickness or appearance was noted.

Human Skin [8] = test: Acetylation of human skin using glutaric anhydride in alkaline buffer solution following micro-needle roller treatment; assay type: in vivo; details: 40 mg/mL in 0.3M disodium phosphate pH 9.1, forearm
Procedure: In this example, glutaric anhydride was applied to the forearm. A skin area approximately 4 mm×4 mm was punctured using a micro-needle roller, followed by pretreated with 0.1M sodium phosphate buffer, pH 8.3 for 30 seconds using cotton swab. Glutaric anhydride powder (40 mg/mL) was dissolved in 0.3M disodium phosphate solution, pH 9.1 and gently applied to the pre-treated skin area for 1 minute using a cotton swab. The sites were final rinsed using an alcohol swab.

Human Skin [9] = test: Acetylation of human skin following dermabrasion (aqueous buffer); assay type: in vivo; details: 20 mg/mL in 0.3M disodium phosphate pH 8.9, after gentle dermabrasion, temporal defects
Procedure: In this example, glutaric anhydride was applied to temporal defects adjacent to periorbital areas. Skin defects were first subject to gentle dermabrasion followed by application of 0.1M disodium phosphate solution, pH 8.3 for 30 seconds using surgical gauze. Glutaric anhydride (20 mg/mL) was mixed in 0.3M disodium phosphate solution at pH 8.9 and immediately (less than 5 seconds after dissolution) applied to the defects for 30 seconds to 1 minute using surgical gauze. Treatment sites were then rinsed with 0.1M phosphate buffered saline, pH 7.2. Pre-treatment and post-treatment photos were taken and the results evaluated.

Human Skin (Temple Area) = test: Acetylation of human skin (temple area) following dermabrasion, in ethanol; assay type: in vivo; details: 50 mg/mL in ethanol, approximately 0.25 mL aliquots, 1 minute, after dermabrasion, up to 5 treatments
Procedure: In this example, glutaric anhydride was applied to temporal defects adjacent to periorbital areas. Skin defects were first subject to gentle dermabrasion followed by application of 0.1M disodium phosphate solution, pH 8.3 for 30 seconds using surgical gauze. Glutaric anhydride (50 mg/mL) was dissolved in ethanol. Aliquots of approximately 0.25 mL were applied to the defects for 1 minute using surgical gauze. Treatment sites were then rinsed with 0.1M phosphate buffered saline, pH 7.2. Up to 5 treatments were made to specific skin sites

Human Skin [10] = test: Acetylation of human skin using glutaric anhydride powder without dermabrasion; assay type: in vivo; details: powder (10 mg/mL) applied to wet defects, 1 minute, no dermabrasion, up to 5 treatments
Procedure: In this example, glutaric anhydride was applied to temporal defects adjacent to periorbital areas. Skin defects were pretreated by application of 0.1M disodium phosphate solution, pH 8.3 for 30 seconds using surgical gauze. Glutaric anhydride powder (10 mg/mL) was gently applied to the wet defects for 1 minute, or until the powder dissolved, using surgical gauze. The powder Treatment sites were then rinsed with 0.1M phosphate buffered saline, pH 7.2. Up to 5 treatments were made to specific skin sites

Processed Human Dermis = test: Acetylation of processed human skin (epithelium removed): mechanical properties; details: 100 mg/mL in dilute alkaline buffer pH 8.5, 1-minute treatment, vs specimen treated with buffer alone
Procedure: Processed human skin was obtained for treatment. The processed skin was comprised of lyophilized dermis. Two samples were tested, two 2 cm×4 cm specimens. One of specimens was treated with 100 mg/mL of glutaric anhydride. The second specimen was treated with buffer solution alone. The rejuvenation agent was prepared in dilute alkaline buffer solution, pH 8.5, quickly dissolved and applied to the dermis within 15 seconds. Prior to treatment with the active agent, skin specimens were pre-treated with buffer alone. Treatments were completed in 1-minute.

[11] = after micro-needle roller, 1 minute

O=C1CCCC(=O)O1 [glutaric anhydride]
Skin smoothness (visual) (Human Skin [1]): minor visual improvement
Skin thickness at the treatment sites (tactile) (Human Skin [1]): tactile increase
Feel of application sites (Human Skin [2]): thicker and softer
Sensation at treated sites immediately after treatment and for sometime after (Human Skin [2]): mild tingly feeling
Skin smoothness (visual) (Human Skin [2]): visual improvement
Skin thickness at the treatment sites (tactile) (Human Skin [2]): tactile increase
Sensation at treated sites immediately after treatment and for sometime after (Human Skin [3]): mild tingly feeling
Color of treated sites (Human Skin [3]; after micro-needle roller): slightly red
Feel of application site (Human Skin [3]; after micro-needle roller): felt thicker immediately after treatment and for several days later
Skin thickness at the treatment sites (tactile) (Human Skin [3]; after micro-needle roller): tactile increase
Sensation as the glutaric anhydride penetrated the skin (Human Skin [4]): slight burning or tingly sensation
Redness at the treatment site (Human Skin [4]; after gauze removed and site flushed): Some redness
Persistence of skin thickening (Human Skin [4]; after the second application): more than 2 weeks
Skin thickening at the treatment site (Human Skin [4]; after the second application): obvious minor skin thickening
Skin appearance (visual) [5]: visual improvement
Skin thickness at the treatment sites (tactile) [5]: tactile increase
Feel of application sites (Human Skin [6]): thicker and softer
Sensation at treated sites immediately after treatment and for sometime after (Human Skin [6]): mild tingly feeling
Skin smoothness (visual) (Human Skin [6]): minor visual improvement
Skin thickness at the treatment sites (tactile) (Human Skin [6]): tactile increase
Effect on skin thickness or appearance (Human Skin [7]): No effect
Sensation at treated sites immediately after treatment (Human Skin [8]; 1 minute): mild tingly feeling
Color of treated sites (Human Skin [8]; [11]): slightly red
Feel of application site (Human Skin [8]; [11]): felt slightly thicker immediately after treatment only
Effect of repeated treatments on skin appearance (Human Skin [8]; after micro-needle roller, repeated treatments): appeared to enhance beneficial results
Appearance of skin defects (Human Skin [9]): improvement
Skin smoothness (visual) (Human Skin (Temple Area)): visual improvement
Skin thickness at the treatment sites (tactile) (Human Skin (Temple Area)): tactile increase
Skin smoothness (visual) (Human Skin [10]): No visual improvement
Tactile increase in skin at the treatment sites (Human Skin [10]): a tactile increase in skin as observed
Durometer, Change (increase) (Processed Human Dermis): 5.3% increase
Low Chord Modulus, Change (decrease) (Processed Human Dermis): 50.5% decrease
Thickness, Change (increase) (Processed Human Dermis): 18.3% increase
Water Retention, Change (increase) (Processed Human Dermis): 66.8% increase
